Test results from patent US4983740A, “Process for 1,4-dihydropyridine compounds” (Adir et Compagnie, priority 1986, dated 1991).
Counter-ions that a name gives are not always drawn.

System: rat aorta
Experiment: In vitro activity in rat aorta stimulated by potassium ions
Type: cell-based, rat (male Wistar)
Details: 1 h; rat aorta rings, KCl 80 mM stimulation, cumulative doses at 60 minutes intervals
Procedure: Determination of the Vitro Activity in Rat Aorta Stimulated by Potassium Ions
This trial was carried out using isolated organs removed from male Wistar rats weighing 300 to 400 g, kept under a water diet 18 hours before sacrificing.
After quickly sacrificing the animal, the aorta (at the level of the arch of the aorta) is removed and dissected into 2 mm-long rings; the endothelium is removed mechanically. After an equilibration period of 1 hour in a physiological solution consisting of (mM): NaCl 112, KCl 5, KH2 PO4 1, MgSO4 1.2, CaCl2 2.5, NaHCO3 25 and glucose 11.5, the preparations are stimulated with a potassium-rich solution. The latter consists of (mM):NaCl 37, KCl 80, KH2 PO4 1, MgSO4 1.2, CaCl2 2.5, NaHCO3 25 and glucose 11.5. This solution has a pH of 7.4 at 37° C.
After 15 minutes of stabilization, the compounds to be tested are then added (sample volume 0.2 ml) at cumulative doses at 60 minutes intervals. From the relaxation values obtained, it is possible to construct a doseresponse curve, leading to the calculation of an IC50 value (expressed in M).

Row | Compound | IC50
1 | CCOC(=O)C1=C(COCCOCCN)NC(C)=C(C(=O)OC)C1c1ccc(OC)c(OC)c1OC (racemic) [EXAMPLE 3, (4R,S)-2-{[2-(2-Aminoethoxy)ethoxy]methyl}-3-ethoxycarbonyl-5-methoxycarbonyl-6-methyl-4-(2,3,4-trimethoxyphenyl)-1,4-dihydropyridine fumarate] | 1000 nM
2 | CCOC(=O)C1=C(COCCOCCNC(=O)C(F)(F)F)NC(C)=C(C(=O)OC)C1c1c(F)c(F)c(F)c(F)c1F (racemic) [EXAMPLE 21, (4R,S)-2-[{2-[2-(N-Trifluoroacetylamino)ethoxy]-ethoxy}methyl]-3-ethoxycarbonyl-5-methoxycarbonyl-6-methyl-4-pentafluorophenyl-1,4-dihydropyridine] | 68 nM
3 | CCOC(=O)C1=C(COCCOCCN)NC(COC)=C(C(=O)OC)C1c1cccc(Cl)c1Cl (racemic) [EXAMPLE 10, (4R,S)-2-{[2-(2-Aminoethoxy)ethoxy]methyl}-4-(2,3-dichlorophenyl)-3-ethoxycarbonyl-5-methoxycarbonyl-6-methoxymethyl-1,4-dihydropyridine] | 90 nM
4 | CCCNCCOCCOCC1=C(C(=O)OCC)C(c2c(F)c(F)c(F)c(F)c2F)C(C(=O)OC)=C(C)N1 (racemic) [EXAMPLE 34, (4R,S)-3-Ethoxycarbonyl-5-methoxycarbonyl-6-methyl-4-pentafluorophenyl-2-[{2-[2-(N-propylamino)ethoxy]ethoxy}-methyl]-1,4-dihydropyridine fumarate] | 1.1 nM
5 | CCOC(=O)C1=C(C)NC(COCCOCCN)=C(C(=O)OCC)C1c1c(F)c(F)c(F)c(F)c1F (racemic) [EXAMPLE 15, (4R,S)-2-{[2-(2-Aminoethoxy)ethoxy]methyl}-3,5-diethoxycarbonyl-6-methyl-4-pentafluorophenyl-1,4-dihydropyridine] | 120 nM
6 | CCOC(=O)C1=C(COCCOCCN)NC(C)=C(C(=O)OC)C1c1cc(Cl)cc(Cl)c1Cl (racemic) [EXAMPLE 31, (4R,S)-2-{[2-(2-Aminoethoxy)ethoxy]methyl}-3-ethoxycarbonyl-5-methoxycarbonyl-6-methyl-4-(2,3,5-trichlorophenyl)-1,4-dihydropyridine fumarate] | 170 nM
7 | COC(=O)C1=C(C)NC(COCCOCCN)=C(C(=O)OC(C)C)C1c1cccc(Cl)c1Cl (racemic) [EXAMPLE 25, (4R,S)-2-{[2-(2-Aminoethoxy)ethoxy]methyl}-4-(2,3-dichlorophenyl)-3-isopropoxycarbonyl-5-methoxycarbonyl-6-methyl-1,4-dihydropyridine fumarate] | 13 nM
8 | CCOC(=O)C1=C(COCCOCCN)NC(C)=C(C(=O)OC)C1c1c(Cl)ccc(Cl)c1Cl (racemic) [EXAMPLE 32, (4R,S,)-2-{[2-(2-Aminoethoxy)ethoxy]methyl}-3-ethoxycarbonyl-5-methoxycarbonyl-6-methyl-4-(2,3,6-trichlorophenyl)-1,4-dihydropyridine fumarate] | 32 nM
9 | CCOC(=O)C1=C(COCCCOCCCN)NC(C)=C(C(=O)OC)C1c1cccc(C(F)(F)F)c1SC (racemic) [EXAMPLE 30, (4R,S)-2-{[3-(3-Aminopropoxy)propoxy]methyl}-3-ethoxycarbonyl-5-methoxycarbonyl-6-methyl-4-(2-methylthio-3-trifluoromethylphenyl)-1,4-dihydropyridine fumarate] | 25 nM
10 | CCOC(=O)C1=C(COCCOCCN)NC(C)=C(C(=O)OC)C1c1cccc(Cl)c1 (racemic) [EXAMPLE 18, (4R,S)-2-{[2-(2-Aminoethoxy)ethoxy]methyl}-4-(3-chlorophenyl)-3-ethoxycarbonyl-5-methoxycarbonyl-6-methyl-1,4-dihydropyridine tartrate] | 4.7 nM
11 | CCOC(=O)C1=C(COCCOCCN)NC(C)=C(C(=O)OC)C1c1cccc(SC)c1OC (racemic) [EXAMPLE 22] | 20 nM
12 | COC(=O)C1=C(C)NC(COCCOCCN)=C(C(=O)OC)C1c1c(F)c(F)c(F)c(F)c1F (racemic) [EXAMPLE 19, (4R,S)-2-{[2-(2-Aminoethoxy)ethoxy]methyl}-3,5-dimethoxycarbonyl-6-methyl-4-pentafluorophenyldihydropyridine tartrate] | 4.9 nM
13 | CCOC(=O)C1=C(COCCOCC[N+](C)(C)Cc2ccccc2)NC(C)=C(C(=O)OC)C1c1cccc(Cl)c1Cl (racemic) [EXAMPLE 11, N-Benzyl-7-[(4R,S)-3-ethoxycarbonyl-4-(2,3-dichlorophenyl)-5-methoxycarbonyl-6-methyl-2-(1,4-dihydropyridyl)]-N,N-dimethyl-3,6-dioxaheptanammonium iodide] | 250 nM
14 | COC(=O)C1=C(C)NC(COCCOCCN)=C(C(=O)OCC(C)C)C1c1cccc(C(F)(F)F)c1Cl (racemic) [EXAMPLE 38, (4R,S)-2-{[2-(2-Aminoethoxy)ethoxy]methyl}-4-(2-chloro-3-trifluoromethylphenyl)-3-isobutyloxycarbonyl-5-methoxycarbonyl-6-methyl-1,4-dihydropyridine fumarate] | 61 nM
15 | CCOC(=O)C1=C(COCCCOCCCN)NC(C)=C(C(=O)OC)C1c1c(F)c(F)c(F)c(F)c1F (racemic) [EXAMPLE 24, (4R,S)-2-{[3-(3-Aminopropoxy)propoxy]methyl}-3-ethoxycarbonyl-5-methoxycarbonyl-4-pentafluorophenyl-1,4-dihydropyridine tartrate] | 0.82 nM
16 | C=C(C)COC(=O)C1=C(COCCOCCN)NC(C)=C(C(=O)OC)C1c1cccc(Cl)c1Cl (racemic) [EXAMPLE 39, (4R,S)-2-{[2-(2-Aminoethoxy)ethoxy]methyl}-4-(2,3-dichlorophenyl)-3-[(2-methyl-2-propenyl)oxycarbonyl]-5-methoxycarbonyl-6-methyl-1,4-dihydropyridine fumarate] | 80 nM

The remaining lines, values ahead:

Row | IC50 | Compound
17 | 4.4 nM | CCOC(=O)C1=C(COCCCOCCCN)NC(C)=C(C(=O)OC)C1c1cccc(Cl)c1Cl (racemic) [EXAMPLE 27, (4R,S)-2-{[3-(3-Aminopropoxy)propoxy]methyl}-4-(2,3-dichlorophenyl)-3-ethoxycarbonyl-5-methoxycarbonyl-6-methyl-1,4-dihydropyridine fumarate]
18 | 75 nM | COC(=O)C1=C(C)NC(COCCOCCN)=C(C(=O)OC/C=C/C(C2CC2)C2CC2)C1c1cccc(Cl)c1Cl [EXAMPLE 29, (4R,S)-2-{[2-(2-Aminoethoxy)ethoxy]methyl}-4-(2,3-dichlorophenyl)-3-{[(E)-4,4-dicyclopropyl-2-butene]-oxycarbonyl}-5-methoxycarbonyl-6-methyl-1,4-dihydropyridine tartrate]
19 | 470 nM | COC(=O)C1=C(C)NC(COCCOCCN)=C(C(=O)OCCCC(C2CC2)C2CC2)C1c1cccc(C(F)(F)F)c1Cl (racemic) [EXAMPLE 36, (4R,S)-2-{[2-(2-Aminoethoxy)ethoxy]methyl}-4-(2-chloro-3-trifluoromethylphenyl)-3-(4,4-dicyclopropylbutyloxycarbonyl)-5-methoxycarbonyl-6-methyl-1,4-dihydropyridine fumarate]
20 | 3000 nM | CCOC(=O)C1=C(COCCOCCN)NC(C)=C(C(=O)OCC(C2CC2)C2CC2)C1c1ccccc1Cl (racemic) [EXAMPLE 9, (4R,S)-2-{[2-(2-Aminoethoxy)ethoxy]methyl}-4-(2-chlorophenyl)-5-(2,2-dicyclopropylethoxycarbonyl)-3-ethoxycarbonyl-6-methyl-1,4-dihydropyridine fumarate]
21 | 350 nM | COC(=O)C1=C(C)NC(COCCOCCN)=C(C(=O)OC/C=C/C(C2CC2)C2CC2)C1c1cccc(C(F)(F)F)c1Cl [EXAMPLE 37, (4R,S)-2-{[2-(2-Aminoethoxy)ethoxy]methyl}-4-(2-chloro-3-trifluoromethylphenyl)-3-{[(E)-4,4-dicyclopropyl-2-butene]oxycarbonyl}-5-methoxycarbonyl-6-methyl-1,4-dihydropyridine fumarate]
22 | 9.3 nM | COC(=O)C1=C(C)NC(COCCOCCN)=C(C(=O)OCC(C)C)C1c1cccc(Cl)c1Cl (racemic) [EXAMPLE 28, (4R,S)-2-{[2-(2-Aminoethoxy)ethoxy]methyl}-4-(2,3-dichlorophenyl)-3-isobutyloxycarbonyl-5-methoxycarbonyl-6-methyl-1,4-dihydropyridine fumarate]
23 | 300 nM | COC(=O)C1=C(C)NC(CCCCCCCN)=C(C(=O)OCC(C2CC2)C2CC2)C1c1ccccc1Cl (racemic) [EXAMPLE 13, (4R,S)-2-(7-Aminoheptyl)-4-(2-chlorophenyl)-3-(2,2-dicyclopropylethoxycarbonyl)-5-methoxycarbonyl-6-methyl-1,4-dihydropyridine fumerate]
24 | 77 nM | COC(=O)C1=C(C)NC(COCCOCCN)=C(C(=O)OCCCC(C2CC2)C2CC2)C1c1cccc(Cl)c1Cl (racemic) [EXAMPLE 33, (4R,S)-2-{[2-(2-Aminoethoxy)ethoxy]methyl}-4-(2,3-dichlorophenyl)-3-(4,4-dicyclopropylbutyloxycarbonyl)-5-methoxycarbonyl-6-methyl-1,4-dihydropyridinefumarate]
25 | 300 nM | COC(=O)C1=C(C)NC(COCCOCCN)=C(C(=O)OCC(C2CC2)C2CC2)C1c1ccccc1Cl (racemic) [EXAMPLE 4, (4R,S)-2-{[2-(2-Aminoethoxy)ethoxy]methyl}-4-(2-chlorophenyl)-3-(2,2-dicyclopropylethoxycarbonyl)-5-methoxycarbonyl-6-methyl-1,4-dihydropyridine fumarate]
